From US9808470B2, “Estrogenic components for use in the treatment of neurological disorders” (UNIVERSITE DE LIEGE, priority 2012, dated 2017) come the findings set out here.

Each structure is given as a SMILES string.

What all share (assay type): in vivo
Data set [1] is described as follows: Ex.4 therapeutic HIE rat model: body weight. To be noted: PND14. As to the method: To study the therapeutic effect of estetrol, newborn rat pups were assigned to one of the following 6 groups at postnatal day 7: sham group (n=29), vehicle group (n=20), 1 mg/kg E4 group (n=16), 5 mg/kg E4 group (n=19), 10 mg/kg day E4 (n=17) and 50 mg/kg day E4 group (n=15). At postnatal day 7 animals were anesthetized with isoflurane (induction, 3.0%; maintenance, 1.5%), and the rat pups from vehicle and E4 groups passed through surgery encompassing left common carotid artery double ligation and cut. After surgery, the pups were returned to their dams and allowed to recover for 1 hour. The pups were then placed in a humidified hypoxic in vivo cabinet (CoyLab). Hypoxia was produced by the inhalation of 11%-8% of oxygen balanced by nitrogen at decreased concentration of oxygen for 20 minutes, followed by inhalation of 8% oxygen and 92% nitrogen at constant concentration for 35 minutes. All the manipulations were performed at 37° C.
Upon retrieval from the hypoxia chamber the rat pups were injected intraperitoneally either by vehicle (vehicle group) or by E4 (1 mg/kg, 5 mg/kg, 10 mg/kg or 50 mg/kg) in accordance to the group assignment. The animals from the sham group went through similar procedures but proceeded neither left common carotid artery ligation and cut followed by hypoxia nor vehicle or estetrol administration. Rat pups recovered with their dams until being sacrificed at postnatal day 14.
To evaluate the post-operative well-being of rat pups due to the performed manipulations and estetrol treatment, the post-operative body weight was measured at postnatal days 7 and 14.

Data set [2] can be described thus: Ex.2 neonatal HIE rat model, pre-treatment: brain weight. To be noted: E4 5 mg/kg ip day 4-7 before HI; day 14; vs vehicle. As to the method: Ischemia was produced by surgery encompassing left common carotid artery double ligation and cut; hypoxia was produced by the inhalation of 11%-8% of oxygen balanced by nitrogen at decreased concentration of oxygen for 20 minutes, followed by inhalation of 8% oxygen and 92% nitrogen at constant concentration for 35 minutes.
Animals were then perfused transcardially with 0.9% saline solution at 4° C., and then with 4% paraformaldehyde in a 0.1-mol/L phosphate-buffered saline solution (pH 7.4) at 4° C. The brains were quickly isolated, weighed and immersed in the same fixative solution at 4° C. for 24 hours, dehydrated with a graded series of ethanol and xylene, and embedded in paraffin.
After delivery, newborn rat pups were assigned to one of the following 4 groups: Sham group, Vehicle group, E4 5 mg/kg/per day group and E4 50 mg/kg/per day group. From day 4 to day 7 inclusive, rat pups were injected intraperitoneally either vehicle (Vehicle group) or E4 (5 mg/kg or 50 mg/kg in accordance to the group assignment) or not injected at all (Sham group). […]

The test system of a further data set is O4-positive cells. Briefly: Ex.6 IL-1β induced diffuse white matter injury mouse model: pre-oligodendrocyte maturation gene expression (qRT-PCR). Particulars: P5. As to the method: Experimental protocols were approved by the institutional guidelines of the Institut National de la Santé et de la Recherche Scientifique (Inserm, France), and met the guidelines for the United States Public Health Service's Policy on Humane Care and Use of Laboratory Animals (NIH, Bethesda, Md., USA). Experiments were performed using OF1 strain mice purchased from Charles River (L'Arbresle, France) and born in our animal facility. Animals were housed under a 12 h light-dark cycle, had access to food and water ad libitum. Sex was determined at birth and confirmed at sacrifice. To avoid any potential variability linked to sex to differences. only male pups were used. […]
Preparation of samples for quantitative reverse-transcriptase polymerase-chain reaction (qRT-PCR), primer design, and PCR protocol, were similar to that previously described (Favrais et al., 2011; Chhor et al., 2013). […] RNA quality and concentration were assessed by spectrophotometry with the Nanodrop™ apparatus (Thermoscientific, Wilmington, Del., USA). […] The relative quantities are expressed as the specific ratio between the gene of interest and Rpl13 or GAPDH. The data are presented as relative mRNA units with respect to control values (expressed as a fold-difference with respect to the mean of sham values).
A general note: In qPCR the cycle at which signal appears reflects the starting amount.

As for `C[C@]12CC[C@@H]3c4ccc(O)cc4CC[C@H]3[C@@H]1[C@@H](O)[C@@H](O)[C@@H]2O` [E4, 1,3,5(10)-estratrien-3,15α,16α,17β-tetrol], the body weight entry is “significantly higher body weight than the vehicle group” in data set [1] (1 mg/kg E4 single ip dose after HI, vs vehicle); “Sham operated animals showed significantly higher body weight” in data set [1] (5 mg/kg E4 single ip dose after HI, vs sham); “significantly higher body weight than the vehicle group” in data set [1] (5 mg/kg E4 single ip dose after HI, vs vehicle); “significantly higher body weight than the vehicle group” in data set [1] (10 mg/kg E4 single ip dose after HI, vs vehicle); “significantly higher body weight than the vehicle group” in data set [1] (50 mg/kg E4 single ip dose after HI, vs vehicle). In data set [2], the brain weight result is on record as “significantly higher”. The “IL-1β-induced up-regulation in ID2 expression” value with O4-positive cells (5 mg/kg and 10 mg/kg E4 co-treatment) is reported as “prevented”. In addition, the “expression of Hey2” value in the data set on O4-positive cells (IL-1β+E4 5 mg/kg, vs IL-1β alone) is recorded as “trend to up-regulation”.
